ChEMBL document CHEMBL2016457, “Discovery of potent and orally bioavailable 17β-hydroxysteroid dehydrogenase type 3 inhibitors” (Bioorg Med Chem, 2012)
Calls of active or inactive are those of the source. The rule behind the calls is not given here.

Tests used:
Rattus norvegicus [1] = assay: Cmax in Sprague-Dawley rat assessed as 5-(3,5-Dichloro-4-hydroxybenzylidene)-3-(4-methoxyphenyl)-2-thioxo-1,3-oxazolidin-4-one concentration at 10 mg/kg, po; assay type: ADME, organism-based; design: dose 10 mg/kg, route oral; details: in vivo
Rattus norvegicus [2] = assay: Inhibition of LH-RH agonist leuprorelin-induced testosterone steroidogenesis in Sprague-Dawley rat drug administered po 1 hr prior leuprorelin-induction measured up to 240 mins by GC/MS analysis; assay type: functional, organism-based
Rattus norvegicus [3] = assay: Tmax in Sprague-Dawley rat assessed as 5-(3,5-Dichloro-4-hydroxybenzylidene)-3-(4-methoxyphenyl)-2-thioxo-1,3-oxazolidin-4-one concentration at 10 mg/kg, po; assay type: ADME, organism-based; design: dose 10 mg/kg, route oral; details: in vivo
Rattus norvegicus [4] = assay: Inhibition of LH-RH agonist leuprorelin-induced testosterone steroidogenesis in Sprague-Dawley rat at 100 mg/kg, po administered 1 hr prior leuprorelin-induction measured after 240 mins by GC/MS analysis relative to control; design: scale not given: the % may be the effect or the level left
[5] = molecular target: T1, Androgen receptor (Homo sapiens) (UniProt P10275); assay: Antagonist activity at human androgen receptor expressed in human HeLa cells assessed as inhibition of DHT-induced response after 40 hrs by luciferase/beta-galactosidase-based reporter gene assay; assay type: functional, cell-based
T1 sequence (whole entry): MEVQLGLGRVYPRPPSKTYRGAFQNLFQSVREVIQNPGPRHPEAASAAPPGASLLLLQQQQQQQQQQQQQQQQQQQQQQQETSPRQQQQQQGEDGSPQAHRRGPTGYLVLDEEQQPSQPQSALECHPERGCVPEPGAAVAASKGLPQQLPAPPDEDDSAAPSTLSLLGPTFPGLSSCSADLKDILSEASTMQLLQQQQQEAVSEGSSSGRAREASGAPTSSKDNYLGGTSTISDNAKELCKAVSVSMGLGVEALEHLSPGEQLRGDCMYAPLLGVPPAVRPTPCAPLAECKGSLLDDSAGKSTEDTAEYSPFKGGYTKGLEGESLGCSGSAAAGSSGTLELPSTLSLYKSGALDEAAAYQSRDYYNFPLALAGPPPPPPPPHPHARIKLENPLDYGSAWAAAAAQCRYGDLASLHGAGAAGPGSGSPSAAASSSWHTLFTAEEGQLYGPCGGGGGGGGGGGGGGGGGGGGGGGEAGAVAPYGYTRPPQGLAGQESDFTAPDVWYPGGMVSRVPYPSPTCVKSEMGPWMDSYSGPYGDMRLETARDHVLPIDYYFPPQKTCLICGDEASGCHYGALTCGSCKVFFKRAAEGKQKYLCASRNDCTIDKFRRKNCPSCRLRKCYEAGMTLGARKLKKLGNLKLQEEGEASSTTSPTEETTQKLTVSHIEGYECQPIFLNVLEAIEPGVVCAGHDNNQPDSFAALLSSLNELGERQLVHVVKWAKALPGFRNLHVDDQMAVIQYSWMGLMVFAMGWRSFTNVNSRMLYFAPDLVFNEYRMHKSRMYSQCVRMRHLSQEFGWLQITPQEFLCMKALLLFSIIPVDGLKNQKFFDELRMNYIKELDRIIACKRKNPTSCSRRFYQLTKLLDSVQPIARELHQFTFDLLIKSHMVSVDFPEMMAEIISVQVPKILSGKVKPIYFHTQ

[6] = molecular target: T1, Androgen receptor (Homo sapiens); assay: Agonist activity at human androgen receptor expressed in human HeLa cells assessed as DHT-induced response after 40 hrs by luciferase/beta-galactosidase-based reporter gene assay; assay type: functional, cell-based
Rattus norvegicus [7] = assay: AUC (0 to 24 hrs) in Sprague-Dawley rat assessed as 5-(3,5-Dichloro-4-hydroxybenzylidene)-3-(4-methoxyphenyl)-2-thioxo-1,3-oxazolidin-4-one concentration at 10 mg/kg, po; assay type: ADME, organism-based, Plasma; design: time < 24 hr, dose 10 mg/kg, route oral; details: in vivo
Rattus norvegicus [8] = assay: Inhibition of LH-RH agonist leuprorelin-induced testosterone steroidogenesis in Sprague-Dawley rat at 100 mg/kg, po administered 1 hr prior leuprorelin-induction measured up to 240 mins by GC/MS analysis relative to CB7630; assay type: functional
Rattus norvegicus [9] = assay: Oral bioavailability in Sprague-Dawley rat assessed as 5-(3,5-Dichloro-4-hydroxybenzylidene)-3-(4-methoxyphenyl)-2-thioxo-1,3-oxazolidin-4-one concentration at 10 mg/kg; assay type: ADME, organism-based; details: in vivo
[10] = molecular target: T2, Estrogen receptor (Homo sapiens) (UniProt P03372); assay: Agonist activity at human Estrogen receptor ERalpha expressed in human HeLa cells assessed as DHT-induced response after 40 hrs by luciferase/beta-galactosidase-based reporter gene assay; assay type: functional, cell-based
T2 sequence (whole entry): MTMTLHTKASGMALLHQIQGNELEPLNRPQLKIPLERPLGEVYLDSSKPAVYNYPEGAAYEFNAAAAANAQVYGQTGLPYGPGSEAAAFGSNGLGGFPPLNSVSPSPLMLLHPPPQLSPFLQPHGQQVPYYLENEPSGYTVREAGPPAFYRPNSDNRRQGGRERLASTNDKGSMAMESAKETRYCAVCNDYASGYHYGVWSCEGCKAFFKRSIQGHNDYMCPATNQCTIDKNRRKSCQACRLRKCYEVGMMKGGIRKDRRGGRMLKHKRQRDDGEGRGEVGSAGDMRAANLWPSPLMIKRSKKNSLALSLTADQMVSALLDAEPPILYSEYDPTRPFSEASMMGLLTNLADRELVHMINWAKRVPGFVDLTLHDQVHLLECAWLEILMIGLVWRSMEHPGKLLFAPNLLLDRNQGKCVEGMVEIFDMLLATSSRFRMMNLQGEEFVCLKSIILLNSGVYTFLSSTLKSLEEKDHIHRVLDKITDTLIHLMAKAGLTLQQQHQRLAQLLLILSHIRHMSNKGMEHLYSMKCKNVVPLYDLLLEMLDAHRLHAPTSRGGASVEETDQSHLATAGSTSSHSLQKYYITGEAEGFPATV

[11] = Cmax in Sprague-Dawley rat at 10 mg/kg, po; assay type: ADME, organism-based; design: dose 10 mg/kg, route oral; details: in vivo
[12] = molecular target: T3, 17-beta-hydroxysteroid dehydrogenase type 3 (Homo sapiens, UniProt P37058)
T3 sequence (P37058 whole entry): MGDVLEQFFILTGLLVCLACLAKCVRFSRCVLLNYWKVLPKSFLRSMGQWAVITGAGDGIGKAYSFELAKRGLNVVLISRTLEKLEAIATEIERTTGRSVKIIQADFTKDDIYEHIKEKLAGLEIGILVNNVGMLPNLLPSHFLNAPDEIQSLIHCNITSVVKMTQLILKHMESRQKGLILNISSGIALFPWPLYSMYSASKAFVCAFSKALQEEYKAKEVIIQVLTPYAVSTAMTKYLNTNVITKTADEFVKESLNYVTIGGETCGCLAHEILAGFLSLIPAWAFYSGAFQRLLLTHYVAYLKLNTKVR
Description: Inhibition of human recombinant 17-beta-HSD3 expressed in human HeLa cells using androstenedione as substrate preincubated for 30 mins prior substrate addition measured after 120 mins by spectrophotometry

[13] = AUC (0 to 24 hrs) in Sprague-Dawley rat at 10 mg/kg, po; assay type: ADME, organism-based; design: time < 24 hr, dose 10 mg/kg, route oral; details: plasma
[14] = Tmax in Sprague-Dawley rat at 10 mg/kg, po; assay type: ADME, organism-based; design: dose 10 mg/kg, route oral; details: in vivo
[15] = Oral bioavailability in Sprague-Dawley rat at 10 mg/kg; assay type: ADME, organism-based; details: in vivo

Row | Structure (SMILES) | Cmax (Rattus norvegicus [1]) [ng/mL] | inhibition (Rattus norvegicus [2]) | Tmax (Rattus norvegicus [3]) [h] | Activity (Rattus norvegicus [4]) [%] | Activity [5] | Activity [6] | AUC (Rattus norvegicus [7]) [ng·h/mL] | fold change (FC) (Rattus norvegicus [8]) | F (Rattus norvegicus [9]) [%] | Activity [10] | Cmax [11] [ng/mL] | IC50 [12] [nM] | AUC(0-t) at 24 h [13] [ng·h/mL] | Tmax [14] [h] | bioavailability [15] [%]
1 | COc1ccc(N2C(=O)/C(=C/c3cc(Cl)c(OP(=O)(O)O)c(Cl)c3)OC2=S)cc1 | 5250 | Dose-dependent effect | 1 | 10 | inactive | inactive | 18800 | 2 | 35.1 | inactive |  |  |  |  | 
2 | COc1ccc(N2C(=O)/C(=C/c3cc(Cl)c(O)c(Cl)c3)OC2=S)cc1 |  |  |  |  | inactive | inactive |  |  |  | inactive | 400 | 12 | 4000 | 1 | 5.5
